Experiments:
8-OHdG = experiment: Immunohistochemistry, frontal cortex: 8-OHdG; format: in vivo, mice; conditions: for Immunoreactivity of 8-OHdG in the frontal cortex: 30 and 60 mg/kg, vs control
Source text: (§1) Following the acute death or the sacrifice of the animals (after 5-h observation period by dislocation of the spine), brains were taken. These were fixed in 4% buffered formalin and then sampled and incorporated into the paraffin (Leica ASP300 processor, Histoline TEC2900 incorporator; Leica Microsystems Srl, Buccinasco, Milano, Italy). Subsequently, the cut (performed with the Leica HistoCore autocut microtome; Leica Microsystems Srl, Buccinasco, Milano, Italy) was designed to create sections with a thickness of 5 µm for each sample.
(§2) On 5-µm-thick paraffined […] sections, we evaluated the expression of a panel of markers: heat shock proteins (HSP27, HSP70, HSP90), SMAC/DIABLO, NF-kB, iNOS, NOX-2, NT, 8-OHDG.
(§3) We used a detection system composed of a biotinylated secondary antibody and HRP-conjugated streptavidin (4plus HRP Universal Detection, Biocare Medical). 3′-,3Diaminobenzidine (DAB) and H2O2 (Betazoid DAB Chromogen Kit, Biocare Medical, Concord, CA, USA) were used as chromogen/substrate. […] In the pictures (sections of the frontal cortex; Figure 3, Figure 4 and Figure 5) to evaluate the variation in the expression of markers (Smac, NOX2, iNOS, 8-OHdG, NT, HSP27, HSP70, HSP90) following treatments, the change in intensity of brown colour (staining of the immunohistochemical technique) in the control and treated tissue was measured. Quantification of Smac, NOX2, iNOS, 8-OHdG, NT, HSP27, HSP70 and HSP90 positive-stained areas was performed by the ImageJ software (imagej.nih.gov/ij/ Accessed date 12 May 2020). […] Positivity was expressed as an extension of the stained analysed area.
(§4) Sweating and salivation were expressed as frequency (e.g., % of animals that developed symptoms); psychomotor agitation was expressed as frequency (% of animals) and duration (total time in mins). Core temperature values were expressed as the difference between control temperature (before injection) and temperature following drug administration (Δ°C). Aggressiveness was expressed as frequency (% of animals which become aggressive) and score (number of bites). […]

iNOS = experiment: Immunohistochemistry, frontal cortex: iNOS; format: in vivo, mice
Source text: as §1, §2, §3, §4

NF-kB = experiment: Immunohistochemistry, frontal cortex: NF-kB; format: in vivo, mice
Source text: as §1, §2
We used a detection system composed of a biotinylated secondary antibody and HRP-conjugated streptavidin (4plus HRP Universal Detection, Biocare Medical). […] In the pictures (sections of the frontal cortex; Figure 3, Figure 4 and Figure 5) to evaluate the variation in the expression of markers (Smac, NOX2, iNOS, 8-OHdG, NT, HSP27, HSP70, HSP90) following treatments, the change in intensity of brown colour (staining of the immunohistochemical technique) in the control and treated tissue was measured. Quantification of Smac, NOX2, iNOS, 8-OHdG, NT, HSP27, HSP70 and HSP90 positive-stained areas was performed by the ImageJ software (imagej.nih.gov/ij/ Accessed date 12 May 2020). […]

HSP27 = experiment: Immunohistochemistry, frontal cortex: HSP27; format: in vivo, mice
Source text: as §1, §2
We used a detection system composed of a biotinylated secondary antibody and HRP-conjugated streptavidin (4plus HRP Universal Detection, Biocare Medical). 3′-,3Diaminobenzidine (DAB) and H2O2 (Betazoid DAB Chromogen Kit, Biocare Medical, Concord, CA, USA) were used as chromogen/substrate. The subsequent counterstaining with haematoxylin–eosin allowed the visualization of cell morphology and nuclei. Once this procedure was completed, the slides were mounted and observed under optical microscope. In the pictures (sections of the frontal cortex; Figure 3, Figure 4 and Figure 5) to evaluate the variation in the expression of markers (Smac, NOX2, iNOS, 8-OHdG, NT, HSP27, HSP70, HSP90) following treatments, the change in intensity of brown colour (staining of the immunohistochemical technique) in the control and treated tissue was measured. Quantification of Smac, NOX2, iNOS, 8-OHdG, NT, HSP27, HSP70 and HSP90 positive-stained areas was performed by the ImageJ software (imagej.nih.gov/ij/ Accessed date 12 May 2020). […] Positivity was expressed as an extension of the stained analysed area.
Sweating and salivation were expressed as frequency (e.g., % of animals that developed symptoms); psychomotor agitation was expressed as frequency (% of animals) and duration (total time in mins). Core temperature values were expressed as the difference between control temperature (before injection) and temperature following drug administration (Δ°C). Aggressiveness was expressed as frequency (% of animals which become aggressive) and score (number of bites). Convulsions were expressed as frequency (% of animals that developed seizure), episodes (e.g., number of seizure events), latency of first episode (sec.) and duration of each episode (sec.). Lethality was expressed as frequency (% of animals that died during the observation period (5 h) or during the following 24 h). […] Regarding immunohistochemical analysis, positivity was expressed as the extension of stained analysed area. Results were expressed as means ± mean standard error (SEM). […]

HSP70 = experiment: Immunohistochemistry, frontal cortex: HSP70; format: in vivo, mice
Source text: as §1, §2, §3, §4

[1] = Excretion studies on urine samples (LC-MS/MS); format: in vivo, mice
Protocol: To study the possible metabolic interaction between cis and trans isomers, we chose to evaluate urinary excretion and metabolic profile of 4,4′-DMAR, as this allowed us to study and correlate physiological and neuro-behavioural responses in the same individual. For the in vivo studies, three different groups of mice were selected. To the first group, a dose of 10 mg/kg of cis-4,4′-DMAR was administered. To the second group, a dose of 10 mg/kg of both cis and trans-4,4′-DMAR was administered. The third group was selected for the collection of urine blank samples. Urine samples were collected in the range of 0–6 h after 4,4′-DMAR or vehicle were intraperitoneally injected.
Urine samples were treated and analysed through a protocol already used by our group for the analysis of the excretion of stimulant drugs in mice. Briefly, our protocol allowed the conversion of conjugated metabolites (i.e., sulfo- and glucorono-conjugates) to phase I metabolites after two hydrolysis steps. […] The residue was reconstituted with 50 μL of mobile phase and analysed with a targeted LC-MS/MS technique. In details, samples were analysed using an Agilent 1200 series HPLC instrument equipped with a SUPELCO Discovery C18 column (15 cm × 2.1 mm × 5 µm) coupled with an API4000 QqQ mass spectrometer (Sciex, 500 Old Connecticut Path, Framingham, MA, USA). […]

[2] = recent pharmacokinetic study; cited from earlier work
NET = system: NET; design: method as in PMID 25331619; conditions: rat brain tissue, lower potency than (±)cis-4,4′-DMAR; cited from earlier work

Cc1ccc(C2OC(N)=NC2C)cc1 (stereo not drawn) [cis-4,4’-DMAR, 4-methyl-5-(4-methylphenyl)-4,5-dihydrooxazol-2-amine]
Immunoreactivity of 8-OHdG in the frontal cortex (8-OHdG): increased
Immunoreactivity of 8-OHdG in the frontal cortex (8-OHdG; listed as (±)cis): overexpressed
Immunoreactivity of iNOS in the frontal cortex (iNOS; 60 mg/kg, vs control): increased
Immunoreactivity of iNOS in the frontal cortex (iNOS; 60 mg/kg, vs control, listed as (±)cis): large increase
Immunoreactivity of NF-kB in the frontal cortex (NF-kB; 10, 30 and 60 mg/kg, vs control): increased
Immunoreactivity of HSP27 in the frontal cortex (HSP27; 10 mg/kg alone): ineffective
Immunoreactivity of HSP27 in the frontal cortex (HSP27; 30 and 60 mg/kg, vs control): increased
Immunoreactivity of HSP27 in the frontal cortex (HSP27; 30 and 60 mg/kg, vs control, listed as (±)cis): overexpressed
Immunoreactivity of HSP70 in the frontal cortex (HSP70; 10 mg/kg alone): ineffective
Immunoreactivity of HSP70 in the frontal cortex (HSP70; 30 and 60 mg/kg, vs control): increased
Urinary excretion of the parent compound (normalised to the sum of 4,4′-DMAR and its metabolites, Figure 7B) ([1]; co-administered with (±)trans-4,4′-DMAR 10 mg/kg, vs cis alone): increase
Metabolism and excretion in the mouse urine [2]: metabolised and excreted

Cc1ccc(C2OC(N)=NC2C)cc1 (stereo not drawn) [trans-4,4’-DMAR, 4-methyl-5-(4-methylphenyl)-4,5-dihydrooxazol-2-amine]
Expression of 8-OHdG in the frontal cortex (8-OHdG; 30 mg/kg alone): ineffective
Immunoreactivity of iNOS in the frontal cortex (iNOS; 30 mg/kg alone): ineffective
Immunoreactivity of NF-kB in the frontal cortex (NF-kB; 30 mg/kg alone): ineffective
Immunoreactivity of HSP27 in the frontal cortex (HSP27; 30 mg/kg alone): ineffective
Immunoreactivity of HSP70 in the frontal cortex (HSP70; 30 mg/kg alone): ineffective
Phase I/II metabolism ([1]; mice urine): did not exhibit
Mode of action at NET (NET): substrate-type releaser
Metabolism and excretion in the mouse urine [2]: not metabolised

From publication PMC8395767, “Worsening of the Toxic Effects of (±)Cis-4,4′-DMAR Following Its Co-Administration with (±)Trans-4,4′-DMAR: Neuro-Behavioural, Physiological, Immunohistochemical and Metabolic Studies in Mice” (International Journal of Molecular Sciences, 2021)
